Drawing on US10053458B2, “Pyrimidine-2,4-diamine derivative and anticancer pharmaceutical composition comprising same as effective ingredient” (KOREA RESEARCH INSTITUTE OF CHEMICAL TECHNOLOGY, priority 2014, dated 2018), this text covers GI50 and IC50 for six compounds.

In one data set the test system is H3122. The data set can be described thus: Cancer cell proliferation inhibition (SRB/MTS), H3122. Particulars: read-out: H3122 GI50.
Data set [1] has as its system BaF3 EML4-ALK WT cells. The following applies: mouse, 3 days.
The test system of the next data set is H2228. The data set can be described thus: Cancer cell proliferation inhibition (SRB/MTS), H2228. Particulars: read-out: H2228 GI50.
For the next data set, the target named is ALK wt. (Homo sapiens (Human), UniProt Q9UM73). Description: ALK enzyme inhibitory activity (HTRF kinase assay), ALK wt. Particulars: read-out: ALK wt. IC50, enzyme level.
Sequence of ALK wt. (Q9UM73 19-1620): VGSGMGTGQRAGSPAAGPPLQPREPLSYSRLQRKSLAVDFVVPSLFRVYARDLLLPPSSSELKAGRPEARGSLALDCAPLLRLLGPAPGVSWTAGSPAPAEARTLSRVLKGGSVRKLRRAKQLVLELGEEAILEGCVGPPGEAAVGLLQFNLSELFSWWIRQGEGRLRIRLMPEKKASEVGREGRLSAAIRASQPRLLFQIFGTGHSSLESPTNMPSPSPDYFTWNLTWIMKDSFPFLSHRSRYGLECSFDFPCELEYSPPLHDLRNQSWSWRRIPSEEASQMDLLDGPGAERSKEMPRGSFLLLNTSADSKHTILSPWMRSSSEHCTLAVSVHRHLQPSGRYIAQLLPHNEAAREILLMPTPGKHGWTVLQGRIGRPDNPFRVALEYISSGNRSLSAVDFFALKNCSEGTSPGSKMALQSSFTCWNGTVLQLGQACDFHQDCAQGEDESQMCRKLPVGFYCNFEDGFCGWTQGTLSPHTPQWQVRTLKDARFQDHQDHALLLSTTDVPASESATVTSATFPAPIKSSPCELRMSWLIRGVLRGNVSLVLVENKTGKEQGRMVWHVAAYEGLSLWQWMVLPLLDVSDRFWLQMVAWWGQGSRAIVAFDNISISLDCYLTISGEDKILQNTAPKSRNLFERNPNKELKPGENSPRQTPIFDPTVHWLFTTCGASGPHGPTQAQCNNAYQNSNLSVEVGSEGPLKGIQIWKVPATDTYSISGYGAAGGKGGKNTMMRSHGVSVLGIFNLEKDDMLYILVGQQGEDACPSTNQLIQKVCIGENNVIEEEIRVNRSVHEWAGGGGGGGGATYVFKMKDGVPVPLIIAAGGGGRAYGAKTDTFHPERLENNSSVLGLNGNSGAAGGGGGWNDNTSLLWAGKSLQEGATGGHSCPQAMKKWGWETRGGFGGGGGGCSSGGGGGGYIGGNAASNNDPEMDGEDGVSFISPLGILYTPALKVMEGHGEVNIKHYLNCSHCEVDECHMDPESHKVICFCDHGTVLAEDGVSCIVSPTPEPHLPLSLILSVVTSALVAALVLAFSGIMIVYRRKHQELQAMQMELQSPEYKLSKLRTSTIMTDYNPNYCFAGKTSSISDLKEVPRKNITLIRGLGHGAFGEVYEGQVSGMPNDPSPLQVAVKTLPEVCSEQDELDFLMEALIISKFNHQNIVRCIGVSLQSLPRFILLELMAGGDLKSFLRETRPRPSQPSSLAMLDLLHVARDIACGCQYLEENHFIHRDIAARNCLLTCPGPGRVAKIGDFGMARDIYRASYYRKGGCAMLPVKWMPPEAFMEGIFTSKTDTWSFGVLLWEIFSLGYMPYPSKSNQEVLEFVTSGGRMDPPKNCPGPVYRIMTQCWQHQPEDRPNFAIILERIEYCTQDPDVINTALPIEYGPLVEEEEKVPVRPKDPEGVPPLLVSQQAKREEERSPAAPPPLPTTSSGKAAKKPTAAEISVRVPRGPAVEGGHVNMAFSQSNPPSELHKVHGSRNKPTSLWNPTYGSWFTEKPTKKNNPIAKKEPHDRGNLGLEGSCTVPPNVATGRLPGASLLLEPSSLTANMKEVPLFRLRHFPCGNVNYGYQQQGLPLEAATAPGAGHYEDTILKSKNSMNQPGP
The subject of data set [2] is BaF3 EML4-ALK WT cells. Description: Cytotoxicity on BaF3 cell transfected with EML4-ALK WT (WST-1). The following applies: read-out: BaF3 EML4-ALK WT, IC50 of the cytotoxicity.
The mark [3] stands for this setting: non-small cell lung cancer cell line, 72 hours.

Read-outs that look alike come from different tables or passages of the source.

Procedure for H2228: (§1) Cancer cell lines used in the experiments were all human-derived cancer cell lines, specifically H2228 and H3122, which are non-small cell lung cancer cell lines.
(§2) The cancer cell proliferation inhibition was measured using the MTS assay as follows. […] Each culture medium was placed in an incubator for 4 hours, taken out and left at room temperature for 10 minutes.
Procedure for H3122: as §1, §2

As for `Cc1cc(Nc2ncc(Cl)c(Nc3ccccc3S(=O)(=O)C(C)C)n2)c(OC(C)C)cc1C1CCNCC1` [Comparative Example 2, LDK-378, reference compound], the concentration for 50% growth inhibition (GI50) is 23 nM in the data set on H3122 (Homo sapiens, NCI-H3122, 72 h) and 25 nM with H2228 (Homo sapiens, NCI-H2228, 72 h). Further, the half-inhibitory concentration (IC50) in the data set on BaF3 EML4-ALK WT cells [1] came to 19 nM.
Consider `COc1cc2c(cc1Nc1ncc(Cl)c(Nc3ccccc3S(=O)(=O)C(C)C)n1)CN(CCO)CC2(C)C` [Example 93], for which the IC50 at ALK wt. is less than 10 nM; in the data set with BaF3 EML4-ALK WT cells [2] (3 days, WST-1), less than 50 nM. Further, the GI50 in the data set with H3122 (setting [3]) and in the data set with H2228 (setting [3]) was less than 50 nM each time.
With `COc1cc2c(cc1Nc1ncc(Cl)c(Nc3ccccc3S(=O)(=O)C(C)C)n1)CC1(CC1)NC2C` (stereo not shown) [Example 30, 5-chloro-N4-(2-(isopropylsulfonyl)phenyl)-N2-(7-methoxy-1methyl-1,4-dihydro-2H-spiro[cyclopropane-1,3-isoquinoline]-6-yl)pyrimidine-2,4-diamine], in the data set with BaF3 EML4-ALK WT cells [2] (Ba/F3 EML4-ALK, 72 h), the IC50 is 5 nM. The concentration for 50% growth inhibition (GI50) is less than 50 nM in the data set with H3122 (Homo sapiens, NCI-H3122, 72 h) and less than 50 nM with H2228 (Homo sapiens, NCI-H2228, 72 h).
Consider `COc1cc2c(cc1Nc1ncc(Cl)c(Nc3ccccc3S(=O)(=O)C(C)C)n1)C(=O)NCC2` [Example 44], for which the IC50 with BaF3 EML4-ALK WT cells [2] (Ba/F3 EML4-ALK, 72 h) is less than 50 nM. Besides, the GI50 was less than 50 nM in the data set with H3122 (Homo sapiens, NCI-H3122, 72 h) and less than 50 nM in the data set on H2228 (Homo sapiens, NCI-H2228, 72 h).
Regarding `CC(C)COc1cc2c(cc1Nc1ncc(Cl)c(Nc3ccccc3S(=O)(=O)C(C)C)n1)CCN(C(=O)C(F)(F)F)C2` [Example 19, 1-(6-(5-chloro-4-(2-(isopropylsulfonyl)phenylamino)pyrimidin-2-yl)amino-7-isobutoxy-3,4-dihydroisoquinolin-2(1H)-yl)-2,2,2-trifluoroethane-1-one], the IC50 with BaF3 EML4-ALK WT cells [2] (Ba/F3 EML4-ALK, 72 h) is less than 50 nM. In addition, the GI50 was less than 50 nM with H3122 (Homo sapiens, NCI-H3122, 72 h) and less than 50 nM in the data set with H2228 (Homo sapiens, NCI-H2228, 72 h).
Take `COc1c(Nc2ncc(Cl)c(Nc3ccccc3S(=O)(=O)C(C)C)n2)cc2c(c1Br)C(C)(C)NCC2` [Example 89, 5-chloro-N4-(2-(isopropylsulfonyl)phenyl)-N2-(8-bromo-7-methoxy-1,1-dimethyl-1,2,3,4-tetrahydroisoquinolin-6-yl)pyrimidine-2,4-diamine]: the IC50 with BaF3 EML4-ALK WT cells [2] (Ba/F3 EML4-ALK, 72 h) is less than 50 nM. Further, the GI50 with H3122 (Homo sapiens, NCI-H3122, 72 h) is less than 50 nM; with H2228 (Homo sapiens, NCI-H2228, 72 h), less than 50 nM.
